Calls of active or inactive are those of the source. The calls are words filed in the database; no cut-off is given here.
test system: PC-3; test: Antiproliferative activity against AR-deficient human PC3 cells assessed as reduction in cell viability after 24 hrs by CCK-8 assay; format: functional, cell-based; conditions: PC-3, 24 h

| SMILES | IC50 [µM] |
| --- | --- |
| O=c1cc(N2CCN(c3ccc(C(F)(F)F)cc3)CC2)c2ccc3ccccc3c2o1 | > 200 |
| CCOc1ccccc1N1CCN(c2cc(=O)oc3c2ccc2ccccc23)CC1 | > 200 |
| O=c1cc(N2CCN(c3ccccc3Cl)CC2)c2ccc3ccccc3c2o1 | > 200 |
| COc1ccc(N2CCN(c3cc(=O)oc4c3ccc3ccccc34)CC2)cc1 | 117 |
| Cc1ccc(N2CCN(c3cc(=O)oc4c3ccc3ccccc34)CC2)cc1 | 136 |
| Cc1ccccc1N1CCN(c2cc(=O)oc3c2ccc2ccccc23)CC1 | 109 |
| O=c1cc(N2CCN(c3ccccc3C(F)(F)F)CC2)c2ccc3ccccc3c2o1 | 108 |
| COc1ccccc1N1CCN(c2cc(=O)oc3c2ccc2ccccc23)CC1 | > 200 |
| O=c1cc(N2CCN(c3ccc(F)cc3F)CC2)c2ccc3ccccc3c2o1 | 122 |
| O=c1cc(N2CCN(c3ccc(Cl)cc3)CC2)c2ccc3ccccc3c2o1 | > 200 |
| O=c1cc(N2CCN(c3ccccn3)CC2)c2ccc3ccccc3c2o1 | 150 |
| O=c1cc(N2CCN(c3ccc(Br)cc3)CC2)c2ccc3ccccc3c2o1 | > 200 |
| N#Cc1ccc(N2CCN(c3cc(=O)oc4c3ccc3ccccc34)CC2)c(F)c1 | > 200 |
| O=c1cc(N2CCN(c3ccc(F)cc3)CC2)c2ccc3ccccc3c2o1 | > 200 |
| O=c1cc(N2CCN(c3cccc(Cl)c3)CC2)c2ccc3ccccc3c2o1 | 165 |
| O=c1cc(N2CCN(Cc3ccccc3)CC2)c2ccc3ccccc3c2o1 | > 200 |
| O=c1cc(N2CCN(C(c3ccc(F)cc3)c3ccc(F)cc3)CC2)c2ccc3ccccc3c2o1 | > 200 |
| Cc1cccc(N2CCN(c3cc(=O)oc4c3ccc3ccccc34)CC2)c1 | 54.1 |
| Cc1ccc(Cl)cc1N1CCN(c2cc(=O)oc3c2ccc2ccccc23)CC1 | > 200 |
| O=c1cc(N2CCN(c3ccccc3F)CC2)c2ccc3ccccc3c2o1 | 124 |
| O=c1cc(N2CCN(c3ccccc3)CC2)c2ccc3ccccc3c2o1 | > 200 |
| COc1cccc(N2CCN(c3cc(=O)oc4c3ccc3ccccc34)CC2)c1 | > 200 |

target: T1, Androgen receptor (Rattus norvegicus, UniProt P15207); test: Displacement of fluormone-AL Green from His-tagged/GST-fused recombinant rat androgen receptor LBD expressed in insect cells measured after 4 hrs by fluorescence polarization assay; conditions: not given
T1 sequence (P15207 whole entry): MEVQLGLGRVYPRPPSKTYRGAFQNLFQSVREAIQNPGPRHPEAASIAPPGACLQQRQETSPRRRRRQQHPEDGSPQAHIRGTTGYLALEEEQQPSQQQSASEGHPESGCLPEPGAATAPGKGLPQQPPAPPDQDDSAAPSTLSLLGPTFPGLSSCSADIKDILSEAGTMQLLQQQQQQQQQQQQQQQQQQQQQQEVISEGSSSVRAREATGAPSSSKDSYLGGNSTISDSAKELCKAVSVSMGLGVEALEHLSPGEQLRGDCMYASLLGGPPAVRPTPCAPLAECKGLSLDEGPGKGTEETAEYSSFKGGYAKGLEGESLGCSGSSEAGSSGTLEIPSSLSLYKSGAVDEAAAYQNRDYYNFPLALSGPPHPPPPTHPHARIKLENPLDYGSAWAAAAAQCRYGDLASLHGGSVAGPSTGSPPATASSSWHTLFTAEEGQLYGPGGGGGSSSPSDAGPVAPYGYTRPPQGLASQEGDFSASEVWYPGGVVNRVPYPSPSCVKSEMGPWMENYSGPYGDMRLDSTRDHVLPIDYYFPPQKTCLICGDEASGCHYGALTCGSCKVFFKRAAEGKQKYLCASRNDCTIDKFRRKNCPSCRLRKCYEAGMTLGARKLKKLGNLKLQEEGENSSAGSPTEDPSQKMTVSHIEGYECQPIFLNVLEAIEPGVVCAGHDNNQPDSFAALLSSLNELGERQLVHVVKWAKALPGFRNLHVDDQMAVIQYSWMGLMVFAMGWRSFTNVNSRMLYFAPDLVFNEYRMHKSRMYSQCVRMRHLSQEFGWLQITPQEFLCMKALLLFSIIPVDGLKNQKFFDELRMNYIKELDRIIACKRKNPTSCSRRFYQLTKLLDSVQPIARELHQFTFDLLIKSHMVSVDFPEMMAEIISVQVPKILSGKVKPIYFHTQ

| SMILES | IC50 [µM] |
| --- | --- |
| CCOc1ccccc1N1CCN(c2cc(=O)oc3c2ccc2ccccc23)CC1 | 2.08 |
| O=c1cc(N2CCN(c3ccccc3Cl)CC2)c2ccc3ccccc3c2o1 | 3.87 |
| COc1ccc(N2CCN(c3cc(=O)oc4c3ccc3ccccc34)CC2)cc1 | 1.56 |
| Cc1ccc(N2CCN(c3cc(=O)oc4c3ccc3ccccc34)CC2)cc1 | 3.02 |
| Cc1ccccc1N1CCN(c2cc(=O)oc3c2ccc2ccccc23)CC1 | 3.54 |
| O=c1cc(N2CCN(c3ccccc3C(F)(F)F)CC2)c2ccc3ccccc3c2o1 | 1.04 |
| COc1ccccc1N1CCN(c2cc(=O)oc3c2ccc2ccccc23)CC1 | 1.26 |
| O=c1cc(N2CCN(c3ccc(Cl)cc3)CC2)c2ccc3ccccc3c2o1 | 2.56 |
| O=c1cc(N2CCN(c3ccccn3)CC2)c2ccc3ccccc3c2o1 | 2.21 |
| O=c1cc(N2CCN(Cc3ccccc3)CC2)c2ccc3ccccc3c2o1 | 0.55 |
| O=c1cc(N2CCN(C(c3ccc(F)cc3)c3ccc(F)cc3)CC2)c2ccc3ccccc3c2o1 | 0.85 |
| O=c1cc(N2CCN(c3ccccc3F)CC2)c2ccc3ccccc3c2o1 | 3.72 |
| O=c1cc(N2CCN(c3ccccc3)CC2)c2ccc3ccccc3c2o1 | 3.94 |

test system: not listed separately; test: Antiproliferative activity against AR-rich human LNCaP-hr cells assessed as reduction in cell viability after 24 hrs by CCK-8 assay; format: functional; conditions: not given

| SMILES | IC50 [µM] |
| --- | --- |
| O=c1cc(N2CCN(c3ccc(C(F)(F)F)cc3)CC2)c2ccc3ccccc3c2o1 | 12.3 |
| CCOc1ccccc1N1CCN(c2cc(=O)oc3c2ccc2ccccc23)CC1 | 1.43 |
| O=c1cc(N2CCN(c3ccccc3Cl)CC2)c2ccc3ccccc3c2o1 | 9.69 |
| COc1ccc(N2CCN(c3cc(=O)oc4c3ccc3ccccc34)CC2)cc1 | 5.6 |
| Cc1ccc(N2CCN(c3cc(=O)oc4c3ccc3ccccc34)CC2)cc1 | 7.7 |
| Cc1ccccc1N1CCN(c2cc(=O)oc3c2ccc2ccccc23)CC1 | 4.43 |
| O=c1cc(N2CCN(c3ccccc3C(F)(F)F)CC2)c2ccc3ccccc3c2o1 | 1.14 |
| COc1ccccc1N1CCN(c2cc(=O)oc3c2ccc2ccccc23)CC1 | 1.7 |
| O=c1cc(N2CCN(c3ccc(F)cc3F)CC2)c2ccc3ccccc3c2o1 | > 50 |
| O=c1cc(N2CCN(c3ccc(Cl)cc3)CC2)c2ccc3ccccc3c2o1 | 1.3 |
| O=c1cc(N2CCN(c3ccccn3)CC2)c2ccc3ccccc3c2o1 | 1.92 |
| O=c1cc(N2CCN(c3ccc(Br)cc3)CC2)c2ccc3ccccc3c2o1 | > 50 |
| N#Cc1ccc(N2CCN(c3cc(=O)oc4c3ccc3ccccc34)CC2)c(F)c1 | 37.8 |
| O=c1cc(N2CCN(c3ccc(F)cc3)CC2)c2ccc3ccccc3c2o1 | 19.3 |
| O=c1cc(N2CCN(c3cccc(Cl)c3)CC2)c2ccc3ccccc3c2o1 | 2.9 |
| O=c1cc(N2CCN(Cc3ccccc3)CC2)c2ccc3ccccc3c2o1 | 0.52 |
| O=c1cc(N2CCN(C(c3ccc(F)cc3)c3ccc(F)cc3)CC2)c2ccc3ccccc3c2o1 | 1.02 |
| Cc1cccc(N2CCN(c3cc(=O)oc4c3ccc3ccccc34)CC2)c1 | 32.5 |
| CC(C)(C)NC(=O)[C@H]1CC[C@H]2[C@@H]3CC[C@H]4NC(=O)C=C[C@]4(C)[C@H]3CC[C@]12C [FINASTERIDE] | 14.5 |
| Cc1ccc(Cl)cc1N1CCN(c2cc(=O)oc3c2ccc2ccccc23)CC1 | 15.3 |
| O=c1cc(N2CCN(c3ccccc3F)CC2)c2ccc3ccccc3c2o1 | 1.89 |
| O=c1cc(N2CCN(c3ccccc3)CC2)c2ccc3ccccc3c2o1 | 5.05 |
| COc1cccc(N2CCN(c3cc(=O)oc4c3ccc3ccccc34)CC2)c1 | 13.3 |

target: T2, Androgen receptor (Homo sapiens) (UniProt P10275); conditions: at 10 µM
T2 sequence (whole entry): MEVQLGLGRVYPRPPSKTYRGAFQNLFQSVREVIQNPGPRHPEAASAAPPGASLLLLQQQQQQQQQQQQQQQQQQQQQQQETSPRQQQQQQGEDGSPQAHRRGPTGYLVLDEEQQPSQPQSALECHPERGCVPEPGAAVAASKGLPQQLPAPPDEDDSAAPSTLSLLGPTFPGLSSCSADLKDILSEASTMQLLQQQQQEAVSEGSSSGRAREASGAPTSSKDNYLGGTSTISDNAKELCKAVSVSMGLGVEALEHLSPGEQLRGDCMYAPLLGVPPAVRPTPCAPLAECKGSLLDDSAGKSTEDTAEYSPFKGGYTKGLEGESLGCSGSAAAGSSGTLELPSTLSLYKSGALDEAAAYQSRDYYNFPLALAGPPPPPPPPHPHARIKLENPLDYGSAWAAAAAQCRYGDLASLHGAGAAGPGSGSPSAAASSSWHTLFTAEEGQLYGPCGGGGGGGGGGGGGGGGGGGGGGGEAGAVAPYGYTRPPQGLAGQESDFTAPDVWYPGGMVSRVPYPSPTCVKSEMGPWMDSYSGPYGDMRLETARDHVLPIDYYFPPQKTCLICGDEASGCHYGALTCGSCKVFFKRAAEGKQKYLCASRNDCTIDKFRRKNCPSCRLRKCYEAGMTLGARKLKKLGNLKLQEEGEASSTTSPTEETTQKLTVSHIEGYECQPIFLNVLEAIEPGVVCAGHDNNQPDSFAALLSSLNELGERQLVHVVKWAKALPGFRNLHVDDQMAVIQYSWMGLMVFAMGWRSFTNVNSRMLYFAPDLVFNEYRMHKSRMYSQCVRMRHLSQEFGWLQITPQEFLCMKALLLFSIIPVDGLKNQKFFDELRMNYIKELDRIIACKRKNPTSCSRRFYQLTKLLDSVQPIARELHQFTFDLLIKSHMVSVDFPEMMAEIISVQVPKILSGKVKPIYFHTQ

| SMILES | inhibition |
| --- | --- |
| O=c1cc(N2CCN(c3ccc(C(F)(F)F)cc3)CC2)c2ccc3ccccc3c2o1 | 20.7% |
| CCOc1ccccc1N1CCN(c2cc(=O)oc3c2ccc2ccccc23)CC1 | 58.5% |
| O=c1cc(N2CCN(c3ccccc3Cl)CC2)c2ccc3ccccc3c2o1 | 51.2% |
| COc1ccc(N2CCN(c3cc(=O)oc4c3ccc3ccccc34)CC2)cc1 | 59.1% |
| Cc1ccc(N2CCN(c3cc(=O)oc4c3ccc3ccccc34)CC2)cc1 | 53.3% |
| Cc1ccccc1N1CCN(c2cc(=O)oc3c2ccc2ccccc23)CC1 | 53.1% |
| O=c1cc(N2CCN(c3ccccc3C(F)(F)F)CC2)c2ccc3ccccc3c2o1 | 65.4% |
| COc1ccccc1N1CCN(c2cc(=O)oc3c2ccc2ccccc23)CC1 | 61.2% |
| O=c1cc(N2CCN(c3ccc(F)cc3F)CC2)c2ccc3ccccc3c2o1 | 45.1% |
| O=c1cc(N2CCN(c3ccc(Cl)cc3)CC2)c2ccc3ccccc3c2o1 | 53.7% |
| O=c1cc(N2CCN(c3ccccn3)CC2)c2ccc3ccccc3c2o1 | 54.5% |
| O=c1cc(N2CCN(c3ccc(Br)cc3)CC2)c2ccc3ccccc3c2o1 | 25.1% |
| N#Cc1ccc(N2CCN(c3cc(=O)oc4c3ccc3ccccc34)CC2)c(F)c1 | 30.2% |
| O=c1cc(N2CCN(c3ccc(F)cc3)CC2)c2ccc3ccccc3c2o1 | 43.5% |
| O=c1cc(N2CCN(c3cccc(Cl)c3)CC2)c2ccc3ccccc3c2o1 | 40.1% |
| O=c1cc(N2CCN(Cc3ccccc3)CC2)c2ccc3ccccc3c2o1 | 72.1% |
| O=c1cc(N2CCN(C(c3ccc(F)cc3)c3ccc(F)cc3)CC2)c2ccc3ccccc3c2o1 | 70.3% |
| Cc1cccc(N2CCN(c3cc(=O)oc4c3ccc3ccccc34)CC2)c1 | 45.5% |
| Cc1ccc(Cl)cc1N1CCN(c2cc(=O)oc3c2ccc2ccccc23)CC1 | 48.3% |
| O=c1cc(N2CCN(c3ccccc3F)CC2)c2ccc3ccccc3c2o1 | 52.3% |
| O=c1cc(N2CCN(c3ccccc3)CC2)c2ccc3ccccc3c2o1 | 51.2% |
| C[C@]1(O)CC[C@H]2[C@@H]3CCC4=CC(=O)CCC4=C3C=C[C@@]21C | inactive |
| COc1cccc(N2CCN(c3cc(=O)oc4c3ccc3ccccc34)CC2)c1 | 41.2% |
